Test results: patent publication US11214803B2, “Modulators of YAP1 expression” (Ionis Pharmaceuticals, Inc., priority 2019, dated 2022)
Strand notation (5' to 3'): a small letter for the sugar, then the base; units joined by * are phosphorothioate-linked, units joined directly phosphodiester-linked; [ ] holds rarer units or linkages, { } end groups; capitals alone tell only the bases. e = 2'-O-(2-methoxyethyl) (MOE); k = constrained ethyl (cEt); [5mC] = 5-methylcytosine; d = 2'-deoxy (DNA); m = 2'-O-methyl

Test system: Yap1 mRNA
Assay: Antisense inhibition of human Yap1 in SNU-449 cells by modified oligonucleotides, single dose (Example 5, RTS36584)
Type: cell-based
Description: Modified oligonucleotides with additional chemistry modifications were designed to target a Yap1 nucleic acid and were tested for their effect on Yap1 mRNA level in SNU-449 cells. The modified oligonucleotides were tested in a series of experiments that had similar culture conditions. Cultured SNU-449 cells at a density of 10,000 cells per well were treated using free uptake with 2,000 nM of modified oligonucleotide. After a treatment period of approximately 48 hours, RNA was isolated from the cells and Yap1 mRNA levels were measured by quantitative real-time RTPCR. Human primer probe set RTS36584 was used to measure mRNA levels. Yap1 mRNA levels were normalized to total RNA content, as measured by RIBOGREEN®. Results are presented in the tables below as percent control of the amount of Yap1 mRNA relative to untreated control cells (% UTC). The modified oligonucleotides with percent control values marked with an asterisk (*) target the amplicon region of the primer probe set. Additional assays may be used to measure the potency and efficacy of the modified oligonucleotides targeting the amplicon region.
Several different chemistry modifications were tested, which are specified in the Chemistry Notation column of the tables below, wherein the notation “d” refers to a 2′-deoxyribose sugar, the notation “s” refers to a phosphorothioate (P═S) internucleoside linkage, the notation “k” refers to a cEt modified sugar, the notation “y” refers to a 2′-O-methyl ribose sugar, the notation “e” refers to a MOE modified sugar, and the notation “^mC” refers to a 5-methylcytosine.
“Start site” indicates the 5′-most nucleoside to which the gapmer is targeted in the human gene sequence. “Stop site” indicates the 3′-most nucleoside to which the gapmer is targeted human gene sequence. […] Activity of the modified oligonucleotide may be defined in a different experiment.

[1] = Table 45, Yap1 mRNA as percent of untreated control, SNU-449 cells, single dose
[2] = Table 41, SNU-449 cells, 10,000 cells per well, free uptake, 2,000 nM modified oligonucleotide, approximately 48 hours, RTS36584, normalized to RIBOGREEN, Yap1 mRNA relative to untreated control cells
[3] = Yap1 mRNA, percent of untreated control, modified oligonucleotides targeting SEQ ID NO: 1 and 2, Table 47
[4] = Table 42 (separate experiment), SNU-449 cells, 10,000 cells per well, free uptake, 2,000 nM modified oligonucleotide, approximately 48 hours, RTS36584, normalized to RIBOGREEN, Yap1 mRNA relative to untreated control cells
[5] = Table 52, Yap1 mRNA, modified oligonucleotides targeting SEQ ID NO: 1 and 2
[6] = Table 51, Yap1 mRNA remaining as percent of untreated control (UT), SNU-449 cells, single dose
[7] = Table 50, Yap1 mRNA remaining as percent of untreated control (UT), SNU-449 cells, single dose
[8] = Table 49, Yap1 mRNA level relative to untreated control, modified oligonucleotides targeting SEQ ID NO.: 1 and 2

1095509 (antisense kT*kG*dA*dG*dG*dT*dA*dT*dA*dA*d[5mC]*kT*dG*kG*dG*k[5mC]) [Compound 1095509]
YAP1 (% UTC) [1]: 29 % UTC

1198654 (kA*k[5mC]*dT*dT*dT*dT*dA*d[5mC]*dA*dT*dT*dA*kG*eG*kA*eA; antisense) [Compound 1198654]
YAP1 (% UTC) [2]: 91 % UTC

1197221 (antisense kA*kG*kT*dA*dA*dG*dG*dT*dT*dT*d[5mC]*d[5mC]*d[5mC]*kA*kG*kA) [Compound 1197221]
YAP1 (% UT) [3]: 42 % UT

1198239 (kA*kG*dG*dA*dT*dG*d[5mC]*dA*dT*dG*dG*eT*eT*eT*kT*kT) [Compound 1198239]
YAP1 (% UTC) [4]: 39 % UTC

1200810 (kA*kA*k[5mC]*dA*d[5mC]*mU*dG*dA*dG*dG*dT*dA*dT*kA*kA*k[5mC]; antisense) [Compound 1200810]
YAP1 (% UT) [5]: 94 % UT

1200821 (kT*kT*kG*dG*dA*mA*dG*dA*dT*d[5mC]*dT*dG*dA*kA*kA*k[5mC]; antisense) [Compound 1200821]
YAP1 (% UT) [5]: 59 % UT

1198202 (kG*kA*dA*dA*dT*dT*dG*dT*d[5mC]*dT*d[5mC]*eA*eT*eG*k[5mC]*k[5mC]; antisense) [Compound 1198202]
YAP1 (% UTC) [4]: 14 % UTC

1200801 (kT*k[5mC]*kT*dA*dT*mA*dT*dT*dA*dG*dA*dG*dT*kA*kT*kG; antisense) [Compound 1200801]
YAP1 (% UT) [6]: 77 % UT

1198605 (antisense kG*kT*kA*dA*dT*dA*dT*dT*dG*d[5mC]*dA*dA*kT*k[5mC]*kT*eG) [Compound 1198605]
YAP1 (% UT) [7]: 7 % UT

1198635 (kA*kT*dG*dG*dA*dA*dA*dT*dT*dG*dT*d[5mC]*kT*e[5mC]*kA*eT; antisense) [Compound 1198635]
YAP1 (% UTC) [2]: 57 % UTC

1198368 (kA*kG*kA*d[5mC]*dT*dA*dA*dG*dT*dA*dA*dG*kG*eT*kT*eT; antisense) [Compound 1198368]
YAP1 (% UT) [8]: 79 % UT

1074461 (kG*kA*kA*dA*dT*dT*dG*dT*d[5mC]*dT*d[5mC]*dA*dT*kG*k[5mC]*k[5mC]) [Compound 1074461]
YAP1 (% UTC) (Table 39, SNU-449 cells, 10,000 cells per well, free uptake, 2,000 nM oligonucleotide, approx. 48 hours, RTS36584, normalized to RIBOGREEN, Yap1 mRNA relative to untreated control): 7 % UTC
YAP1 (% UTC) (Table 40 (separate experiment), SNU-449 cells, 10,000 cells per well, free uptake, 2,000 nM oligonucleotide, approx. 48 hours, RTS36584, normalized to RIBOGREEN, Yap1 mRNA relative to untreated control): 9 % UTC
YAP1 (% UTC) [2]: 12 % UTC
YAP1 (% UTC) [4]: 11 % UTC
YAP1 (% UTC) (Table 43 experiment, SNU-449 cells, 10,000 cells per well, free uptake, 2,000 nM, approximately 48 hours, RTS36584, Yap1 mRNA normalized to RIBOGREEN, relative to untreated control cells): 11 % UTC
YAP1 (% UTC) (Table 44 experiment, SNU-449 cells, 10,000 cells per well, free uptake, 2,000 nM, approximately 48 hours, RTS36584, Yap1 mRNA normalized to RIBOGREEN, relative to untreated control cells): 7 % UTC
YAP1 (% UTC) [1]: 9 % UTC
YAP1 (% UT) (Table 46, Yap1 mRNA as percent of untreated control, SNU-449 cells, single dose): 14 % UT
YAP1 (% UT) (Table 48, Yap1 mRNA level relative to untreated control, modified oligonucleotides targeting SEQ ID NO.: 1 and 2): 20 % UT
YAP1 (% UT) [8]: 10 % UT
YAP1 (% UT) [7]: 16 % UT
YAP1 (% UT) [6]: 5 % UT
YAP1 (% UT) [5]: 15 % UT
YAP1 (% UT) [3]: 5 % UT

1197198 (antisense kA*kT*kT*d[5mC]*dA*dG*dA*dT*dT*dT*dA*dG*dG*kA*kT*kG) [Compound 1197198]
YAP1 (% UT) [3]: 139 % UT
